Source: patent US20060084789A1, “Immunotherapeutic and immunoprphylactic reagents” (priority 2002, published 2006)

Legend:
Type in all cases: cell-based, human
[1] = system: IFN-γ production by RGP-specific TCL; assay: IFN-γ detection in culture supernatants by sandwich ELISA; details: supernatant at 48 h, UD undetectable, limit of detection 2 pg/ml
Experimental: (§1) Cytokine Detection in Culture Supernatants
(§2) Supernatants of triplicate cultures were harvested and pooled from T cell proliferation assay cultures at 48 hours for the detection of IL-5 and IFN-γ production by sandwich ELISA. Briefly white Maxisorp (NUNC, Roskilde, Denmark) ELISA plates were coated with capture mAb (anti-IL-5, Pharmingen, San Diego, Calif., USA; anti-IFN-γ, Endogen, Woburn, Mass. USA) overnight at 4° C. Plates were then washed and wells blocked with 1% Bovine Serum Albumin/PBS for 1 hour at room temperature. Following washing, test samples (neat) and serial dilutions of recombinant human IL-5 (Pharmingen, USA) or IFN-γ (Endogen, USA) (for the construction of standard curves) were added and incubated overnight at 4° C. Following washing, plates were incubated with biotinylated detecting mAb (anti-IL-5, Pharmingen, USA; […], Endogen, USA) for 1 hour at room temperature. Plates were then washed and incubated with streptavidin-peroxidase (Amersham, Piscataway, N.J., USA) for 30 minutes at room temperature. Following washing, a chemiluminescent substrate (Du Pont, Wilmington, Del., USA) was added to each well and plates read in a Lumicount microplate Glow Luminometer (Packard Instrument Company, Meriden, Conn., USA), 0.5 seconds/well, automatic sensitivity setting. Standard curve construction and determination of test sample cytokine levels were performed using Packard I-smart software. The limits of detection for IL-5 and IFN-γ were 10 pg/ml and 2 pg/ml respectively.

[2] = system: IL-5 production by RGP-specific TCL; assay: IL-5 detection in culture supernatants by sandwich ELISA; details: supernatant at 48 h, UD undetectable, limit of detection 10 pg/ml
Experimental: as §1, §2

[3] = system: RGP-specific TCL; assay: TCL proliferation assay (3H-thymidine incorporation, stimulation index); details: for Proliferative response, stimulation index: peptides 10 μg/ml
Experimental: Generation of Short-Term RGP-Specific TCL
PBMC were cultured in 24-well plates (Costar, Mass., USA) at 2.5×10^6 cells/well with RGP extract at a concentration of 25 or 50 μg/ml in RPMI 1640 medium (Gibco BRL, NY, USA) supplemented with 2 mM GlutaMAX I (Gibco BRL), 0.05 mg/ml gentamicin (David Bull Laboratories, Mulgrave, Victoria, Australia) and 5% heat-inactivated hunan AB^+ serum (Sigma, Mo., USA) for 7 days at 37° C. in a 5% CO2 humidified incubator. At day 7, cells were washed once and restimulated in 24-well plates at 5×10^5 cells/well width 25 or 50 μg/ml of RGP extract in the presence of 5×10^5 cells/well irradiated (3000 rads) autologous PBMC as a source of antigen presenting cells (APC). At day 2 following restimulation, 10 U/ml of Lymphocult T-LF (LC; Biotest, Germany) was added as a source of IL-2 and at day 4, 1 ml of culture medium was removed and replaced with fresh medium and 10 U/ml of LC. […] In all experiments T cells were rested for 6 to 7 days after the last addition of antigen and APC before testing.
T cells (5×10^4/well) were cultured in 96-well U bottom plates with either RGP extract at concentrations ranging from 25 to 200 μg/ml, purified Lol p 1 (0.12 to 2 μg/ml) or Lol p 5 (0.1 to 10 μg/ml), or Lol p 1 or Lol p 5 peptides (10 μg/ml), or medium alone (to determine background levels of proliferation), in the presence of washed autologous irradiated (3000 rads) PBMC (5×10^4/well). […] Cultures were incubated for 3 days, pulsed for the last 16 hours with ^3H-thymidine (1 μCi/well) and harvested onto glass fibre filters. ^3H-thymidine incorporation was measured by liquid scintillation spectroscopy and the mean counts per minute (cpm) for triplicate cultures was determined. Responses were considered positive if the stimulation index (SI, cpm of antigen-stimulated T cells divided by cpm of unstimulated T cells) was ≧2.5. Where several concentrations of allergen were tested (i.e., RGP, Lol p 1 and Lol p 5), values corresponding to the highest proliferation are shown.

[4] = Subject 3 TCL, Lol p 1 peptides
[5] = Subject 15 TCL, Lol p 1 peptides
[6] = Subject 19 TCL, Lol p 1 peptides
[7] = Subject 2 TCL, Lol p 1 series (Table 3), RGP and Lol p 1 maximal response
[8] = Subject 3 TCL, Lol p 1 series (Table 3), RGP and Lol p 1 maximal response
[9] = Subject 4 TCL, Lol p 1 series (Table 3), RGP and Lol p 1 maximal response
[10] = Subject 15 TCL, Lol p 1 series (Table 3), RGP and Lol p 1 maximal response
[11] = Subject 17 TCL, Lol p 1 series (Table 3), RGP and Lol p 1 maximal response
[12] = Subject 19 TCL, Lol p 1 series (Table 3), RGP and Lol p 1 maximal response
[13] = Subject 2 TCL, Lol p 5 peptides
[14] = Subject 20 TCL, Lol p 1 peptides

Row | Substance | IFN-γ, proliferation inducing peptides [1, 4] | IFN-γ, proliferation inducing peptides [1, 5] | IFN-γ, proliferation inducing peptides [1, 6] | IL-5, proliferation inducing peptides [2, 5] | Proliferative response, stimulation index [3, 7] | Proliferative response, stimulation index [3, 8] | Proliferative response, stimulation index [3, 9] | Proliferative response, stimulation index [3, 10] | Proliferative response, stimulation index [3, 11] | Proliferative response, stimulation index [3, 12] | also measured
1 | LDAKSTWYGKPTGAGPKDNG (Lolium perenne) [Lol p 1 peptide 19-38] | 20.9 pg/mL | 204.1 pg/mL | 2.8 pg/mL | 182.7 pg/mL | 5.2 | 3.3 | 12.3 | 10.5 | 5.3 | 10.3 | responder frequency among Lol p 1 peptide-responsive donors ([3]; Lol p 1 peptide-responsive RGP-specific TCL, SI ≥2.5 positive, listed as Lol p 1 (19-3 8)): 46%; Proliferative response, stimulation index ([3]; Subject 6 TCL, Lol p 1 series (Table 3), RGP and Lol p 1 maximal response): 2.7; Proliferative response, stimulation index ([3]; Subject 7 TCL, Lol p 1 series (Table 3), RGP and Lol p 1 maximal response): 3.2; Proliferative response, stimulation index ([3]; Subject 8 TCL, Lol p 1 series (Table 3), RGP and Lol p 1 maximal response): 3.8; Proliferative response, stimulation index ([3]; Subject 12 TCL, Lol p 1 series (Table 3), RGP and Lol p 1 maximal response): 7.5; Proliferative response, stimulation index ([3]; Subject 21 TCL, Lol p 1 series (Table 3), RGP and Lol p 1 maximal response): 3.8
2 | IAPYHFDLSGHAFGSMAKKG (Lolium perenne) [Lol p 1 peptide 100-119] |  | 167.1 pg/mL |  | 275.6 pg/mL | 9.4 |  | 6.8 | 9.2 |  | 3.7 | Proliferative response, stimulation index ([3]; Subject 11 TCL, Lol p 1 series (Table 3), RGP and Lol p 1 maximal response): 7.9
3 | GHAFGSMAKKGEEQNVRSAG (Lolium perenne) [Lol p 1 peptide 109-128] | 32.1 pg/mL | 143.3 pg/mL | 8.0 pg/mL | 160.7 pg/mL | 12.9 | 2.8 |  | 7.1 | 2.7 | 12.0 | IFN-γ, proliferation inducing peptides ([1]; Subject 16 TCL, Lol p 1 peptides): 13.8 pg/mL; Proliferative response, stimulation index ([3]; Subject 16 TCL, Lol p 1 series (Table 3), RGP and Lol p 1 maximal response): 3.0
4 | Lol p 5 peptide 190-209: synthetic 20-mer, amino acids 190-209 of Lol p 5A (SEQ ID NO:2) (GAYETYKFIPSLEAAVKQAY; Lolium perenne) |  |  |  |  |  |  |  |  |  |  | IFN-γ, proliferation inducing peptides [1, 13]: 7.8 pg/mL; IL-5, proliferation inducing peptides [2, 13]: 518.1 pg/mL; Proliferative response, stimulation index ([3]; Subject 2 TCL, Lol p 5 series (Table 4), RGP and Lol p 5 maximal response): 3.0; Proliferative response, stimulation index ([3]; Subject 4 TCL, Lol p 5 series (Table 4), RGP and Lol p 5 maximal response): 5.1; Proliferative response, stimulation index ([3]; Subject 11 TCL, Lol p 5 series (Table 4), RGP and Lol p 5 maximal response): 4.0; Proliferative response, stimulation index ([3]; Subject 29 TCL, Lol p 5 series (Table 4), RGP and Lol p 5 maximal response): 3.1
5 | Lol p 1 peptide 37-56: synthetic 20-mer, amino acids 37-56 of Lol p 1A (SEQ ID NO:1) (NCGACGYKDVDKAPFNGMTG; Lolium perenne) |  |  |  |  |  |  | 2.5 |  |  |  | IFN-γ, proliferation inducing peptides [1, 14]: 11.1 pg/mL; IL-5, proliferation inducing peptides [2, 14]: 46.9 pg/mL; Proliferative response, stimulation index ([3]; Subject 20 TCL, Lol p 1 series (Table 3), RGP and Lol p 1 maximal response): 2.6
